Paper PMC12304285 (British Journal of Cancer, 2025)
Entries after “also recorded” stand apart in the source; their conditions may differ.

Experiments:
[1] = Plasma and urine pharmacokinetics in patients; type: in vivo, human
Protocol: Urine PK samples were collected at Cycle 0, Day 1 and at Cycle 1, Day 8 at the following timepoints: pre-dose (Cycle 0, Day 1 only), 0 to 8 h post dose and 8 to 24 h post-dose. […] Maximum observed concentration (Cmax) and time to reach Cmax (tmax) were determined directly by inspection of the concentration-time profiles. Terminal half-life slope (t½λz) was calculated as ln2/terminal elimination rate constant (λz). Area under the plasma concentration time curve from zero to last measurable concentration (AUClast) was calculated using the linear up/log down trapezoidal rule. AUClast was extrapolated to infinity using λz to obtain overall exposure (AUCinf). The amount of drug excreted unchanged in the urine (e.g. Ae0-t, Aeτ) for any given dosing interval was determined by multiplying the concentration of drug determined in the urine sample by the volume of the sample collected in that period.

[2] = tested on: PBMCs collected from patients; experiment: iMRM-MS of DDR proteins in PBMCs collected from patients on treatment; type: in vivo, human; conditions: doses up to 40 mg
Protocol: Prior to assessing clinical trial samples, PBMCs from healthy volunteers were treated ex vivo to determine biomarkers modulated by AZD7648. […] Samples were pooled and analysed by iMRM-MS. During the clinical trial, patient blood samples were collected during cycle 1 (day 1 and day 8), cycle 2 (day 1) and at the end of treatment and were analysed by iMRM-MS [20–23]. On-treatment tumour biopsies were optional in the trial protocol and none were collected, so tumour PD studies were not conducted.
Preparation of Clinical PBMCs and iMRM analysis
Blood from patients was drawn into 8 mL Vacutainer CPT tubes (BD) before treatment, 2-8h post dose at C1D1, C1D8, C2D1 and at discontinuation.
After inverting the tube 8 -10 times, it was centrifuged and the PBMC layer transferred into a new tube, washed once with ice cold PBS, centrifuged again to obtain a pellet which was then […]
PBMC pellets were lysed with 8M Urea supplemented with proteases and phosphatases inhibitors, sonicated, clarified by centrifugation and quantified with Micro -BCA assay (Thermo - […]
The samples were quality checked by SDS -PAGE followed by silver staining to evaluate the complexity of the obtained protein extract and assess the presence of most common blood contaminants (hemoglobulin and albumin). […]

Cc1cc2ncnn2cc1Nc1ncc2c(n1)n(C1CCOCC1)c(=O)n2C [AZD7648, 7-Methyl-2-[(7-methyl[1,2,4]triazolo[1,5-a]pyridin-6-yl)amino]-9-(tetrahydro-2H-pyran-4-yl)-7,9-dihydro-8H-purin-8-one]
exposure versus dose ([1]; 5 to 160 mg BID): increased in a broadly linear manner | fraction excreted unchanged in urine ([1]; human, in vivo): 5–10 % of the total administered dose | AUC(0-inf) ([1]; human, plasma, oral, 80 mg BID cohort, Cycle 0 Day 1 single dose, read-out: geoMean AUCinf): 25.2 µM·h | Cmax ([1]; human, plasma, oral, 80 mg BID cohort, Cycle 0 Day 1 single dose, read-out: geoMean Cmax): 2460 nM | Tmax ([1]; human, plasma, 5 to 160 mg, oral): 1 to 2 h | drug exposure achieved ([1]; one patient at the 80 mg dose level): > 1 µM | activity on DDR protein markers in patient PBMCs [2]: did not show any activity; also recorded: not biologically active
